From US9828386B2 (priority 2013, dated 2017) come the findings set out here.

Experiment in all cases: cells
Assay type in all cases: cell-based

In one assay the test system is BGC823 cell line. The settings on record: BGC823 cells, MTT, 48 h cultivation; read-out: IC50 (μM) BGC823. The procedure: (§1) Test of compounds of embodiment of the present invention on inhibiting tumor cell activity
(§2) 3, cell lines: A549, BGC823, Hela cell line and normal human hepatocytes which are available from Wu Han boster Co., Ltd.;
(§3) A549, BGC823, Hela cell line and normal human hepatocytes in logarithmic growth phase are subjected to 1000 rpm centrifugation for 5 min, supernatant is then discarded, moderate medium is suspended, the cell concentration is adjusted to 3.5×10^4/well, the cells were seeded in 96-wells culture plate, and following experimental groups are set:
(§4) a negative control group; 35 test groups with same concentration (ie: groups of Compound (1) to Compound (35)); three control groups: groups of podophyllotoxin, 4′-demethylepipodophyllotoxin and etoposide.
(§5) Taking RPMI1640 containing 10% of calf serum as nutrient solution, 0.10 mL of cells per well is incubated under conditions of 37° C., 5% CO2 and saturated humidity for 24 h to nearly be covered, then the nutrient solution is discarded. […] 100 μl of DMSO is added to each well, then vibrated at 37° C. by shaker table for 30 min, then measuring absorbance (OD) at 492 nm, calculating MTT ratio=OD value of drug group/OD value of the negative control group.

The test system of a further assay is Hela cell line. The settings on record: Hela cells, MTT, 48 h cultivation; read-out: IC50 (μM) Hela. Here is the method: as §1, §2, §3, §4, §5
In a further assay the test system is A549 cell line. The note with it: A549 cells, MTT, 48 h cultivation; read-out: IC50 (μM) A549. Here is the method: as §1, §2, §3, §4, §5

Structures are written as SMILES.

For orientation: IC50 means the midpoint of a concentration-inhibition curve. As for `COc1cc(C2c3cc4c(cc3C(Sc3ncccc3C(=O)O)C3COC(=O)C23)OCO4)cc(OC)c1O` (stereo not drawn) [Compound 23, 4-S-(3-picolinate-2)-deoxy-4′-demethylepipodophyllotoxin], the results for the IC50 in the assay with BGC823 cell line, in the assay with Hela cell line and with A549 cell line were 6.68 ± 0.04 µM, 1.22 ± 0.25 µM and 2.03 ± 0.45 µM, respectively.
Taken in the same sequence, the figures for `COc1cc(C2c3cc4c(cc3C(Sc3nnc(NS(=O)(=O)c5ccc(C)cc5)s3)C3COC(=O)C23)OCO4)cc(OC)c1OC` (stereo not drawn) [Compound 17, 4-S-[2-N-(4-methyl-benzenesulfonamide-)-1,3,4-thiadiazole-5-]-4-deoxy-podophyllotoxin] were 1.04 ± 0.13 µM, 0.97 ± 0.02 µM and 1.12 ± 1.74 µM.
Taken in the same sequence, the figures for `COc1cc(C2c3cc4c(cc3C(Sc3ccccn3)C3COC(=O)C23)OCO4)cc(OC)c1OC` (stereo not drawn) [Compound 5, 4-S-(pyridin-2)-4-deoxy-podophyllotoxin] were 4.76 ± 0.12 µM, 0.73 ± 0.05 µM and 5.66 ± 0.47 µM.
With `COc1cc(C2c3cc4c(cc3C(Sc3nnc(C)s3)C3COC(=O)C23)OCO4)cc(OC)c1O` (stereo not drawn) [Compound 21, 4-S-(5-methyl-1,3,4-thiadiazol-2)-4-deoxy-4′-demethylepipodophyllotoxin], the IC50 in the assay on BGC823 cell line was determined as 0.83 ± 0.14 µM; with Hela cell line, 0.52 µM; in the assay with A549 cell line, 5.76 ± 0.18 µM.
In the case of `COc1cc(C2c3cc4c(cc3C(Sc3nccc(N)n3)C3COC(=O)C23)OCO4)cc(OC)c1OC` (stereo not drawn) [Compound 10, 4-S-(4-amino-pyrimidine-2)-4-deoxy-podophyllotoxin], the concentration for half-maximal inhibition (IC50) worked out at 1.32 ± 0.15 µM in the assay with BGC823 cell line, 1.85 ± 0.12 µM in the assay with Hela cell line and 4.65 ± 0.26 µM in the assay on A549 cell line.
Taken in the same sequence, the figures for `COc1cc(C2c3cc4c(cc3C(Sc3ncccn3)C3COC(=O)C23)OCO4)cc(OC)c1OC` (stereo not drawn) [Compound 9, 4-S-(pyrimidine-2)-4-deoxy-podophyllotoxin] were 0.71 ± 0.14 µM, 3.64 ± 0.46 µM and 6.4 ± 0.38 µM.
Taken in the same sequence, the figures for `COc1ccc(S(=O)(=O)Nc2nnc(SC3c4cc5c(cc4C(c4cc(OC)c(O)c(OC)c4)C4C(=O)OCC34)OCO5)s2)cc1` (stereo not drawn) [Compound 35, 4-S-[2-N-(4-methoxy-benzenesulfonamide-)-1,3,4-thiadiazole-5-]-4-deoxy-4′-demethylepipodophyllotoxin] were 2.23 ± 0.69 µM, 1.19 ± 0.57 µM and 0.84 ± 0.62 µM.
Turning to `COc1cc(C2c3cc4c(cc3C(Sc3nccc(N)n3)C3COC(=O)C23)OCO4)cc(OC)c1O` (stereo not drawn) [Compound 27, 4-S-(4-amino-pyrimidine-2)-4-deoxy-4′-demethylepipodophyllotoxin], the IC50 in the assay on BGC823 cell line stood at 0.22 ± 0.03 µM; with Hela cell line, 1.33 ± 0.39 µM; in the assay on A549 cell line, 3.27 ± 0.17 µM.
As for `COc1cc(C2c3cc4c(cc3C(Sc3nc(NS(=O)(=O)c5ccc(C)cc5)n[nH]3)C3COC(=O)C23)OCO4)cc(OC)c1OC` (stereo not drawn) [Compound 15, 4-S-[3-N-(4-methyl-benzenesulfonamide-)-1,2,4-triazole-5-]-4-deoxy-podophyllotoxin], the results for the IC50 in the assay on BGC823 cell line, in the assay on Hela cell line and with A549 cell line were 1.69 ± 0.07 µM, 0.6 ± 0.08 µM and 2.36 ± 0.23 µM, respectively.
Taken in the same sequence, the figures for `COc1cc(C2c3cc4c(cc3C(Sc3nc(C)cc(C)n3)C3COC(=O)C23)OCO4)cc(OC)c1O` (stereo not drawn) [Compound 28, 4-S-(4,6-dimethyl-pyrimidine-2)-4-deoxy-4′-demethylepipodophyllotoxin] were 4.29 ± 0.83 µM, 5.26 ± 0.62 µM and 1.27 ± 1.12 µM.
